Read-outs that look alike come from different tables or passages of the source.
Key:
in vitro = settings: human, uninfected (mock-infected) CEM-SS cells
HIV-1RF in CEM-SS cells [1] = assay: microbe, parasite or virus in culture; settings: Human immunodeficiency virus 1, CEM-SS, read-out: EC50 (μM), 50% inhibitory concentration for cytopathicity
HIV-1RF in CEM-SS cells [2] = system: HIV-1RF in CEM-SS cells
HIV-1 NL4-3, RT L74V = type: cell-based
3TC isolate, RT M184I = type: cell-based
HIV-I Clade F in PBMC = assay: microbe, parasite or virus in culture; type: cell-based; settings: Human immunodeficiency virus 1, PBMC
HIV-1 NL4-3, RT K101E = type: cell-based
HIV-1 Clade D in PBMC = assay: microbe, parasite or virus in culture; type: cell-based; settings: Human immunodeficiency virus 1, PBMC
HIV-1 Clade B in PBMC = assay: microbe, parasite or virus in culture; type: cell-based; settings: Human immunodeficiency virus 1, PBMC
HIV-1 NL4-3, RT V108I = type: cell-based
HIV-1 RF in CEM-SS = assay: microbe, parasite or virus in culture; type: cell-based; settings: Human immunodeficiency virus 1, CEM-SS
HIV-1 IIIB in CEM-SS = assay: microbe, parasite or virus in culture; type: cell-based; settings: Human immunodeficiency virus 1, IIIB
HIV-1 Clade C in PBMC = assay: microbe, parasite or virus in culture; type: cell-based; settings: Human immunodeficiency virus 1, PBMC
HIV-1 NL4-3 Wildtype = assay: microbe, parasite or virus in culture; type: cell-based; settings: Human immunodeficiency virus 1, NL43, CEM-SS
HIV-1 Ba-L in Mono/Mac = assay: microbe, parasite or virus in culture; type: cell-based; settings: Human immunodeficiency virus 1, BAL
HIV-1 IIIB Wild Type = assay: microbe, parasite or virus in culture; type: cell-based; settings: Human immunodeficiency virus 1, IIIB
HIV-1 NL4-3, RT V106A = type: cell-based
HIV-1 Clade E in PBMC = assay: microbe, parasite or virus in culture; type: cell-based; settings: Human immunodeficiency virus 1, PBMC
HIV-1 NL4-3, RT A98G = type: cell-based
HIV-1 TEKI in PBMC = assay: microbe, parasite or virus in culture; type: cell-based; settings: Human immunodeficiency virus 1, PBMC
[3] = system: 129/Cost isolate, RT K103N; type: cell-based, HIV-1
HIV-1 Clade A in PBMC = assay: microbe, parasite or virus in culture; type: cell-based; settings: Human immunodeficiency virus 1, PBMC
HIV-1 NL4-3, RT Y188C = type: cell-based
HIV-1 ROJO in PBMC = assay: microbe, parasite or virus in culture; type: cell-based; settings: Human immunodeficiency virus 1, PBMC
HIV-1RF in CEM-SS cells [4] = settings: reported previously; cited from earlier work

C=C(c1cc(Br)c(OC)c(C(=O)OC)c1)c1cc(Br)c(OC)c(C(=O)OC)c1 [Compound 3, 3′,3″-Dibromo-4′,4″-dimethoxy-5′,5″-bis(methoxycarbonyl)-1,1-diphenylethene]
CC50 (in vitro): 316 µM
melting point: 144 to 145 °C
EC50 (HIV-1RF in CEM-SS cells [1]): > 6.9 µM

CC=C(c1cc(Br)c(OC)c(C(=O)OC)c1)c1cc(Br)c(OC)c(C(=O)OC)c1 [Compound 4, 3′,3″-Dibromo-4′,4″-dimethoxy-5′,5″-bis(methoxycarbonyl)-1,1-diphenylpropene]
CC50 (in vitro): 10 µM
EC50 (HIV-1RF in CEM-SS cells [1]): > 6.9 µM

COC=C(c1cc(Br)c(OC)c(C(=O)OC)c1)c1cc(Br)c(OC)c(C(=O)OC)c1 [Compound 5, 3′,3″-Dibromo-4′,4″-dimethoxy-5′,5″-bis(methoxycarbonyl)-1-methoxy-2,2-diphenylethene]
CC50 (in vitro): 22 µM
EC50 (HIV-1RF in CEM-SS cells [1]): > 6.9 µM

COC(=O)c1cc(C(=CCCO)c2cc(Br)c(OC)c(C(=O)OC)c2)cc(Br)c1OC [Compound 7, 3′,3″-Dibromo-4-hydroxy-4′,4″dimethoxy-5′,5″-bis(methoxycarbony)-1,1-diphenyl-1-butene]
CC50 (in vitro): > 316 µM
TI, therapeutic index (CC50 divided by EC50) (HIV-1RF in CEM-SS cells [2]; HIV-1RF, CEM-SS cells): >52
EC50 (HIV-1RF in CEM-SS cells [1]): 6 µM

COC(=O)c1cc(C(=CCCN=[N+]=[N-])c2cc(Br)c(OC)c(C(=O)OC)c2)cc(Br)c1OC [Compound 9, 4-Azido-3′,3″-Dibromo-4′,4″dimethoxy-5′,5″-bis(methoxycarbony)-1,1-diphenyl-1-butene]
CC50 (in vitro): > 316 µM
TI, therapeutic index (CC50 divided by EC50) (HIV-1RF in CEM-SS cells [2]; HIV-1RF, CEM-SS cells): >278
EC50 (HIV-1RF in CEM-SS cells [1]): 1.1 µM

CCCCCC1OC1(c1cc(Br)c(OC)c(C(=O)OC)c1)c1cc(Br)c(OC)c(C(=O)OC)c1 (centres unmarked) [Compound 12, 3′,3″-Dibromo-4′,4″-dimethoxy-5′,5″-bis(methoxycarbonyl)-1,1,-diphenyl-1-heptene Epoxide]
CC50 (in vitro): > 100 µM
EC50 (HIV-1RF in CEM-SS cells [1]): > 6.9 µM

COC(=O)c1cc(C(=CC(=O)O)c2cc(Cl)c(OC)c(C(=O)OC)c2)cc(Cl)c1OC [Compound 14, 3′,3″-Dichloro-4′,4″-dimethoxy-5′,5″-bis(methoxycarbonyl)-3,3-diphenylpropenoic Acid]
CC50 (in vitro): 48 µM
EC50 (HIV-1RF in CEM-SS cells [1]): > 6.9 µM

COC(=O)C=C(c1cc(Cl)c(OC)c(C(=O)OC)c1)c1cc(Cl)c(OC)c(C(=O)OC)c1 [Compound 15, Methyl 3′,3″-Dichloro-4′,4″-dimethoxy-5,5Δ-bis(methoxycarbonyl)-3,3-diphenylpropenoate]
CC50 (in vitro): 25 µM
EC50 (HIV-1RF in CEM-SS cells [1]): > 6.9 µM

COC(=O)c1cc(C(=CC(=O)OC(C)(C)C)c2cc(Cl)c(OC)c(C(=O)OC)c2)cc(Cl)c1OC [Compound 16, tert-Butyl 3′,3″-Dichloro-4′,4″-dimethoxy-5,5″-bis(methoxycarbonyl)3,3-diphenylpropenoate]
CC50 (in vitro): > 100 µM
EC50 (HIV-1RF in CEM-SS cells [1]): > 6.9 µM

COC(=O)c1cc(C(=CCCO)c2cc(Cl)c(OC)c(C(=O)OC)c2)cc(Cl)c1OC [Compound 18, 3′,3″-Dichloro-4-hydroxy-4′,4″dimethoxy-5′,5″-bis(methoxycarbony)-1,1-diphenyl-1-butene]
CC50 (in vitro): 16.8 µM
TI, therapeutic index (CC50 divided by EC50) (HIV-1RF in CEM-SS cells [2]; HIV-1RF, CEM-SS cells): 2
EC50 (HIV-1RF in CEM-SS cells [1]): 8.6 µM

COC(=O)c1cc(C(=CCCOS(C)(=O)=O)c2cc(Cl)c(OC)c(C(=O)OC)c2)cc(Cl)c1OC [Compound 19, 3′,3″-Dichloro-4-methanesulfonyloxy-4′,4″dimethoxy-5′,5′-bis(methoxycarbony)-1,1-diphenyl-1-butene]
CC50 (in vitro): 6.9 µM
EC50 (HIV-1RF in CEM-SS cells [1]): > 6.9 µM

COC(=O)c1cc(C(=CCCN=[N+]=[N-])c2cc(Cl)c(OC)c(C(=O)OC)c2)cc(Cl)c1OC [Compound 20, 4-Azido-3′,3″-Dichloro-4′,4″dimethoxy-5′,5′-bis(methoxycarbony)-1,1-diphenyl-1-butene]
CC50 (in vitro): 41.8 µM
TI, therapeutic index (CC50 divided by EC50) (HIV-1RF in CEM-SS cells [2]): 155
potency relative to the bromo azide 9 (HIV-1RF in CEM-SS cells [2]; inhibition of viral cytopathicity): four times more potent
EC50 (HIV-1RF in CEM-SS cells [1]): 0.27 µM

COC(=O)c1cc(C(=CCCN)c2cc(Cl)c(OC)c(C(=O)OC)c2)cc(Cl)c1OC [Compound 21, 4-Amino-3′,3″-Dichloro-4′,4″dimethoxy-5′,5″-bis(methoxycarbony)-1,1-diphenyl-1-butene]
CC50 (in vitro): 15 µM
inhibition of HIV-1 cytopathic effect (in words) (HIV-1RF in CEM-SS cells [2]; HIV-1RF in CEM-SS cells): no detectable inhibitory cytopathic effect was detected
inhibition of HIV-1 cytopathic effect (in words) (HIV-1RF in CEM-SS cells [2]; at 100 μM): inactive
EC50 (HIV-1RF in CEM-SS cells [1]): > 6.9 µM

COC(=O)CCCC=C(c1cc(Cl)c(OC)c(C(=O)OC)c1)c1cc(Cl)c(OC)c(C(=O)OC)c1 [Compound 22, Methyl 3′,3″-Dichloro-4′,4″-dimethoxy-5,5″-bis(methoxycarbonyl)-6,6-diphenylhexenoate]
EC50 (HIV-1 NL4-3, RT L74V): 2230 nM
EC50 (3TC isolate, RT M184I): 1080 nM
EC50 (HIV-I Clade F in PBMC): 1700 nM
EC50 (HIV-1 NL4-3, RT K101E): 3.05 µM
EC50 (HIV-1 Clade D in PBMC): 1020 nM
EC50 (HIV-1 Clade B in PBMC): 430 nM
EC50 (HIV-1 NL4-3, RT V108I): 12 µM
EC50 (HIV-1 RF in CEM-SS): 910 nM
EC50 (HIV-1 IIIB in CEM-SS): 160 nM
CC50 (in vitro): 31.6 µM
EC50 (HIV-1 Clade C in PBMC): 1040 nM
EC50 (HIV-1 NL4-3 Wildtype): 1780 nM
EC50 (HIV-1 Ba-L in Mono/Mac): 360 nM
EC50 (HIV-1 IIIB Wild Type): 390 nM
EC50 (HIV-1 NL4-3, RT V106A): 12.7 µM
EC50 (HIV-1 Clade E in PBMC): 400 nM
EC50 (HIV-1 NL4-3, RT A98G): 840 nM
EC50 (HIV-1RF in CEM-SS cells [1]): 0.013 µM
EC50 (HIV-1 TEKI in PBMC): 2200 nM
EC50 [3]: 10.8 µM
EC50 (HIV-1 Clade A in PBMC): 1090 nM
EC50 (HIV-1 NL4-3, RT Y188C): 10.8 µM
EC50 (HIV-1 ROJO in PBMC): 2280 nM

COc1c(Cl)cc(C(=CCC(=O)O)c2cc(Cl)c(OC)c(C(=O)O)c2)cc1C(=O)O [Compound 23, 3′,3″-Dichloro-4′,4″-dimethoxy-5′,5″-bis(carboxy)-4,4-diphenyl-3-butenoic Acid]
CC50 (in vitro): > 316 µM
EC50 (HIV-1RF in CEM-SS cells [1]): > 6.9 µM

CC1(C)OC(=O)c2cc(C(=CCCO)c3cc(Cl)c4c(c3)C(=O)OC(C)(C)O4)cc(Cl)c2O1 [Compound 30]
CC50 (in vitro): 18.8 µM
inhibition of HIV-1 cytopathic effect (in words) (HIV-1RF in CEM-SS cells [2]; HIV-1RF in CEM-SS cells): inactive
EC50 (HIV-1RF in CEM-SS cells [1]): > 6.9 µM

CC1(C)OC(=O)c2cc(C(=CCCBr)c3cc(Cl)c4c(c3)C(=O)OC(C)(C)O4)cc(Cl)c2O1 [Compound 31, 1-Bromo-4,4-bis(8′,8″-dichloro-2′,2′,2″,2″-tetramethyl-4′,4″-dioxo-6′,6″-0(1,3-benzodioxyl)]-3-butene]
CC50 (in vitro): 176 µM
inhibition of HIV-1 cytopathic effect (in words) (HIV-1RF in CEM-SS cells [2]; HIV-1RF in CEM-SS cells): inactive
EC50 (HIV-1RF in CEM-SS cells [1]): > 6.9 µM

CCCCCC=C(c1ccc(OC)c(C(=O)OC)c1)c1ccc(OC)c(C(=O)OC)c1 [Compound 36, 4′,4″-Dimethoxy-3′,3″-bis(methoxycarbonyl)-1,1-diphenyl-1-heptene]
CC50 (in vitro): 14 µM
EC50 (HIV-1RF in CEM-SS cells [1]): > 6.9 µM

CCCCCC=C(c1cc(I)c(OC)c(C(=O)OC)c1)c1cc(I)c(OC)c(C(=O)OC)c1 [Compound 40, 3′,3″-Diiodo-4′,4″-Dimethoxy-5′,5″-bis(methoxycarbonyl)-1,1-diphenyl-1-heptene]
CC50 (in vitro): > 316 µM
inhibition of HIV-1 cytopathic effect (in words) (HIV-1RF in CEM-SS cells [2]; HIV-1RF in CEM-SS cells): inactivity
EC50 (HIV-1RF in CEM-SS cells [1]): > 6.9 µM

CCCCCC=C(c1cc(Cl)c(OC)c(C(=O)OC)c1)c1cc(Cl)c(OC)c(C(=O)OC)c1 [Compound 41]
potency relative to 1 (HIV-1RF in CEM-SS cells [4]): approximately half as potent as 1

— patent US6569897B1, “Alkenyldiarylmethane non-nucleoside HIV-1 reverse transcriptase inhibitors” (priority 1998, dated 2003)
